Data set [1] has as its system HF, PPC-1, and CaKi-1 cells. The data set can be described thus: MTT cell viability screen at 100 μM (cell line not given). Format: cell-based, human. The settings on record: 72 h, cell line not stated. How it is done: The effect of synthesized compounds on cell viability was studied using 3-(4,5-dimethylthiazol-2-yl)-2,5-diphenyltetrazolium bromide (MTT; Sigma-Aldrich Co., St Louis, MO, USA) assay, as described elsewhere. Briefly, HF, PPC-1, and CaKi-1 cells were seeded in 96-well plates (Corning) in triplicates at a volume of 100 μL at a concentration of 4 × 10^3 cells/well. After 24 h of incubation, the cells were treated with 100 μM of tested compounds. After 72 h, the MTT reagent (at 0.5 mg/mL concentration) has been added to the wells, and cells were incubated for 4 h. Then the medium was aspirated, and the formed purple crystals were dissolved in 100 μL DMSO (Sigma-Aldrich Co.). The absorbance was measured at 570 and 630 nm using a multi-detection microplate reader. The compound effect on cell viability was calculated using a formula (1): Relativecellviability%=A−A0/ANC−A0 (1) Where: […]

Data set [2] has as its system Human foreskin fibroblasts (HF) CRL-4001. Put plainly: MTT cell viability assay, fibroblasts HF. Format: cell-based. The settings on record: Fibroblast, 72 hours of incubation, n = 3, read-out: EC50 against HF. How it is done:
(§1) The human clear cell renal cell carcinoma line (CaKi-1) was obtained from American Type Culture Collection (ATCC, Manassas, VA). The human prostate carcinoma cell line PPC-1 was originally obtained from ATCC and kindly provided by Prof. Tambet Teesalu (University of Tartu, Estonia). Human foreskin fibroblasts (HF) CRL-4001 were originally obtained from ATCC and kindly provided by Prof. Helder Santos (University of Helsinki, Finland). Cells were cultured in Dulbecco’s Modified Eagle’s GlutaMAX medium (Gibco (Carlsbad, CA, USA) supplemented with 10,000 U/mL penicillin, 10 mg/mL streptomycin (Gibco), and 10% fetal bovine serum (Gibco). During cell passaging, Tryple Express reagent (Gibco) was used for cell detachment. Cell cultures were grown at 37°C in a humidified atmosphere containing 5% CO2. They were used until the passage of 20.
(§2) The effect of synthesized compounds on cell viability was studied using 3-(4,5-dimethylthiazol-2-yl)-2,5-diphenyltetrazolium bromide (MTT; Sigma-Aldrich Co., St Louis, MO, USA) assay, as described elsewhere. […] The absorbance was measured at 570 and 630 nm using a multi-detection microplate reader. The compound effect on cell viability was calculated using a formula (1): Relativecellviability%=A−A0/ANC−A0 (1) Where: […]
(Formazan colour is commonly taken as a measure of viable cells.)

The test system of data set [3] is human clear cell renal cell carcinoma line (CaKi-1). The data set can be described thus: MTT cell viability assay, CaKi-1. The class given is cell-based. The following applies: 72 hours of incubation, n = 3, read-out: EC50 against CaKi-1. How it is done: as §1, §2
Data set [4] has as its system human prostate carcinoma cell line PPC-1. The data set can be described thus: MTT cell viability assay, PPC-1. The class given is cell-based. The settings on record: 72 hours of incubation, n = 3, read-out: EC50 against PPC-1. How it is done:
as §1, §2

A further data set concerns CaKi-1 cells. The settings on record: cited from earlier work.

Like-named read-outs stand apart in the source and are kept apart here. Where only a bound is given, the exact number is not on record here.

The melting point is the temperature of the solid-liquid transition. In the case of `Cc1cc(NS(=O)(=O)c2ccc(NCCC(=O)NN=Cc3ccccc3Cl)cc2)no1` [Compound 15e, 4-((3-(2-(2-Chlorobenzylidene)hydrazineyl)-3-oxopropyl)amino)-N-(5-methylisoxazol-3-yl)benzene-sulfonamide], the melting point was 202 to 203 °C. Also, the “reduced cell viability up to about” value in data set [1] is “about 40%”.

Broadly, the EC50 is the concentration that produces a half-maximal response. `Cc1cc(NS(=O)(=O)c2ccc(NCCC(=O)NN=Cc3cccc4ccccc34)cc2)no1` [Compound 15k, N-(5-methylisoxazol-3-yl)-4-((3-(2-(naphthalen-1-ylmethylene)hydrazineyl)-3-oxopropyl)amino)-benzenesulfonamide]: the melting point lay within 206 to 207 °C. Also, the “reduced cell viability up to about” value in data set [1] is given as “about 40%”. Besides, the EC50 in data set [2] is over 100 µM. Besides, in data set [3], the EC50 is over 100 µM. The EC50 in data set [4] is over 100 µM.

Turning to `Cc1cc(NS(=O)(=O)c2ccc(NCCC(=O)NN=Cc3ccc([N+](=O)[O-])s3)cc2)no1` [Compound 16d, N-(5-methylisoxazol-3-yl)-4-((3-(2-((5-nitrothiophen-2-yl)methylene)hydrazineyl)-3-oxopropyl)amino)-benzenesulfonamide], the melting point fell in the range of 195 to 196 °C. Also, the “reduced cell viability up to about” value in data set [1] is reported as “about 40%”.

With `Cc1ccc(Nc2nccc(N(C)c3ccc4c(C)n(C)nc4c3)n2)cc1S(N)(=O)=O` [pazopanib], the concentration giving a half-maximal response (EC50) in the data set with CaKi-1 cells (after 72 hours of incubation, read-out: EC50 (renal cancer drugs, compared with CaKi-1 data)) is 30 µM.

In the case of `CCN(CC)CCNC(=O)c1c(C)[nH]c(/C=C2\C(=O)Nc3ccc(F)cc32)c1C` [sunitinib], the EC50 with CaKi-1 cells (read-out: EC50 against CaKi-1 cells) is 2.2 µM.
